Measurements taken from US8580842B2, “Heteroaryl-substituted 1,3-dihydroindol-2-one derivatives and medicaments containing them” (Abbott GmbH & Co. KG, priority 2003, dated 2013).
Where a name gives a salt, the structure may show the parent alone.

Biological target: T1, human V1b receptors (Homo sapiens, UniProt P47901)
T1 construct: expressed in transfected cells; host or cells: CHO-K1 (membrane preparation V1b-3H2)
T1 sequence (P47901 1-424): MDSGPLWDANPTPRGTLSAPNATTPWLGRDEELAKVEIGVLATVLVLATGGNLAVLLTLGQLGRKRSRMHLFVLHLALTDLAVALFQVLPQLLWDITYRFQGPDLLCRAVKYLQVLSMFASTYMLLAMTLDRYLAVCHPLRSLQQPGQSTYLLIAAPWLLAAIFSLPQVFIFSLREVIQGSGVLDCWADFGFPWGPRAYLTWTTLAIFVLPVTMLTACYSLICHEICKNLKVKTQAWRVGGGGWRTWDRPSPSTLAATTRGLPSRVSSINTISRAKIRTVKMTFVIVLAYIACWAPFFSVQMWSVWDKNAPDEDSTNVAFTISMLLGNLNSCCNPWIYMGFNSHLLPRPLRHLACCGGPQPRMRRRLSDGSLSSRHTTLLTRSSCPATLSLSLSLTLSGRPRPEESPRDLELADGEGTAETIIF
Assay: Vasopressin V1b receptor binding assay
Conditions: membranes from CHO-K1 cells expressing human V1b receptors, displacement of 1.5 nM 3H-AVP; read-out: Binding affinity for the vasopressin V1b receptor
Description: Vasopressin V1b Receptor Binding Assay
The binding of the compounds of this invention to the vasopressin V1b receptor was determined with the following assay:
Compounds were dissolved in a concentration of 10^−2 M or 10^−3 M in DMSO. Further dilutions were performed with water.
The procedure for the binding assay was based on the method of Tahara et al. (Tahara A et al., Brit. J. Pharmacol. 125, 1463-1470 (1998)). Assays (0.250 ml) consisted of membranes (58 μg protein) from CHO-K1 cells permanently expressing human V1b receptors (preparation V1b-3H2, containing protease inhibitors, Roche complete Mini #1836170), 1.5 nM ^3H-AVP (8-Arg-vasopressin, NET 800) in incubation buffer (total binding) and different concentrations of test compound (displacement). Non-specific binding was defined with 10^−6 M AVP. Assays were performed in triplicate.
Incubation buffer: 50 mM Tris, 10 mM MgCl2, 0.1% BSA adjusted to pH 7.4 with HCl.
After incubation, 60 min at room temperature, bound and free radioligand was separated by filtration under vacuum through Whatman GF/B glass fibre mats using a Skatron cell harvester 7000.
Liquid scintillation counting was performed in beta-counters, Tricarb model 2000 or 2200CA (Packard). Dpm were calculated by a programme with standardisation using a standard quench series.
Evaluation of binding parameters was performed by non-linear regression analysis with SAS. The strategy of this program is similar to the program LIGAND described by Munson and Rodbard (Munson PJ and Rodbard D, Analytical Biochem 107, 220-239 (1980)).

Ki [nM] | Structure (SMILES)
< 50 | COc1ccc(S(=O)(=O)N2C(=O)C(OC(=O)N3CCN(C4CCN(C)CC4)CC3)(c3cccnc3OC)c3cc(Cl)ccc32)cc1 (centres unmarked) [Example 115, 4-(1-Methyl-piperidin-4-yl)-piperazine-1-carboxylic acid 5-chloro-1-(4-methoxy-benzenesulfonyl)-3-(2-methoxy-pyridin-3-yl)-2-oxo-2,3-dihydro-1H-indol-3-yl ester diacetate]
50 to 500 | COc1ncccc1C1(OC(=O)N2CCN(C3CCN(C)CC3)CC2)C(=O)N(S(=O)(=O)c2ccc(C(F)(F)F)cc2)c2ccc(Cl)cc21 (centres unmarked) [Example 122, 4-(1-Methyl-piperidin-4-yl)-piperazine-1-carboxylic acid 5-chloro-3-(2-methoxy-pyridin-3-yl)-2-oxo-1-(4-trifluoromethyl-benzenesulfonyl)-2,3-dihydro-1H-indol-3-yl ester diacetate]
50 to 500 | COc1ncccc1C1(OC(=O)N2CCN(C3CCN(C)CC3)CC2)C(=O)N(S(=O)(=O)c2ccc(OC(F)(F)F)cc2)c2ccc(Cl)cc21 (centres unmarked) [Example 123, 4-(1-Methyl-piperidin-4-yl)-piperazine-1-carboxylic acid 5-chloro-3-(2-methoxy-pyridin-3-yl)-2-oxo-1-(4-trifluoromethoxy-benzenesulfonyl)-2,3-dihydro-1H-indol-3-yl ester diacetate]
< 50 | CCOc1ccccc1C1(NC(=O)N2CCN(C3CCN(C)CC3)CC2)C(=O)N(S(=O)(=O)c2sccc2OC)c2ccc(OC)cc21 (centres unmarked) [Example 125, 4-(1-Methyl-piperidin-4-yl)-piperazine-1-carboxylic acid [3-(2-ethoxy-phenyl)-5-methoxy-1-(3-methoxy-thiophene-2-sulfonyl)-2-oxo-2,3-dihydro-1H-indol-3-yl]-amide]
< 50 | COc1ccc2c(c1)C(OC(=O)N1CCN(C3CCN(C)CC3)CC1)(c1ccccc1OC)C(=O)N2S(=O)(=O)c1cccs1 (centres unmarked) [Example 126, 4-(1-Methyl-piperidin-4-yl)-piperazine-1-carboxylic acid 5-methoxy-3-(2-methoxy-phenyl)-2-oxo-1-(thiophene-2-sulfonyl)-2,3-dihydro-1H-indol-3-yl ester dihydrochloride]
< 50 | COc1ccccc1C1(OC(=O)N2CCN(C3CCN(C)CC3)CC2)C(=O)N(S(=O)(=O)c2ccccn2)c2ccc(C)cc21 (centres unmarked) [Example 127, 4-(1-Methyl-piperidin-4-yl)-piperazine-1-carboxylic acid 3-(2-methoxy-phenyl)-5-methyl-2-oxo-1-(pyridine-2-sulfonyl)-2,3-dihydro-1H-indol-3-yl ester dihydrochloride]
< 50 | COc1ccccc1C1(OC(=O)N2CCC(N3CCN(C)CC3)CC2)C(=O)N(S(=O)(=O)c2cccs2)c2ccc(C)cc21 (centres unmarked) [Example 130, 4-(4-Methyl-piperazin-1-yl)-piperidine-1-carboxylic acid 3-(2-methoxy-phenyl)-5-methyl-2-oxo-1-(thiophene-2-sulfonyl)-2,3-dihydro-1H-indol-3-yl ester dihydrochloride]
< 50 | Cc1ccccc1C1(OC(=O)N2CCN(C3CCN(C)CC3)CC2)C(=O)N(S(=O)(=O)c2ccccn2)c2ccc(C#N)cc21 (centres unmarked) [Example 134, 4-(1-Methyl-piperidin-4-yl)-piperazine-1-carboxylic acid 5-cyano-2-oxo-1-(pyridine-2-sulfonyl)-3-o-tolyl-2,3-dihydro-1H-indol-3-yl ester dihydrochloride]
< 50 | COc1ccccc1C1(OC(=O)N2CCN(C3CCN(C)CC3)CC2)C(=O)N(S(=O)(=O)c2cccs2)c2ccc(F)cc21 (centres unmarked) [Example 136, 4-(1-Methyl-piperidin-4-yl)-piperazine-1-carboxylic acid 5-fluoro-3-(2-methoxy-phenyl)-2-oxo-1-(thiophene-2-sulfonyl)-2,3-dihydro-1H-indol-3-yl ester]
< 50 | CCOc1ccccc1C1(OC(=O)N2CCN(C3CCN(C)CC3)CC2)C(=O)N(S(=O)(=O)c2sccc2OC)c2ccc(Cl)cc21 (centres unmarked) [Example 143, 4-(1-Methyl-piperidin-4-yl)-piperazine-1-carboxylic acid 5-chloro-3-(2-ethoxy-phenyl)-1-(3-methoxy-thiophene-2-sulfonyl)-2-oxo-2,3-dihydro-1H-indol-3-yl ester]
< 50 | CCOc1ccccc1C1(OC(=O)N2CCN(C3CCN(C)CC3)CC2)C(=O)N(S(=O)(=O)c2ccc(C)cn2)c2ccc(Cl)cc21 (centres unmarked) [Example 145, 4-(1-Methyl-piperidin-4-yl)-piperazine-1-carboxylic acid 5-chloro-3-(2-ethoxy-phenyl)-1-(5-methyl-pyridine-2-sulfonyl)-2-oxo-2,3-dihydro-1H-indol-3-yl ester]
< 50 | CCOc1ccccc1C1(OC(=O)N2CCN(C3CCN(C)CC3)CC2)C(=O)N(S(=O)(=O)c2cccc3cccnc23)c2ccc(OC)cc21 (centres unmarked) [Example 154, 4-(1-Methyl-piperidin-4-yl)-piperazine-1-carboxylic acid 3-(2-ethoxy-phenyl)-5-methoxy-2-oxo-1-(quinoline-8-sulfonyl)-2,3-dihydro-1H-indol-3-yl ester]
< 50 | CCOc1ccccc1C1(OC(=O)N2CCN(C3CCN(C)CC3)CC2)C(=O)N(S(=O)(=O)c2cccc3cccnc23)c2ccc(C#N)cc21 (centres unmarked) [Example 158, 4-(1-Methyl-piperidin-4-yl)-piperazine-1-carboxylic acid 5-cyano-3-(2-ethoxy-phenyl)-2-oxo-1-(quinoline-8-sulfonyl)-2,3-dihydro-1H-indol-3-yl ester]
50 to 500 | COc1ncccc1C1(OC(=O)N2CCN(C3CCN(C)CC3)CC2)C(=O)N(S(=O)(=O)c2cn(C)cn2)c2ccc(Cl)cc21 (centres unmarked) [Example 165, 4-(1-Methyl-piperidin-4-yl)-piperazine-1-carboxylic acid 5-chloro-3-(2-methoxy-pyridin-3-yl)-1-(1-methyl-1H-imidazole-4-sulfonyl)-2-oxo-2,3-dihydro-1H-indol-3-yl ester diacetate]
50 to 500 | COc1ncccc1C1(OC(=O)N2CCN(C3CCN(C)CC3)CC2)C(=O)N(S(=O)(=O)c2cn(C)c(C)n2)c2ccc(Cl)cc21 (centres unmarked) [Example 166, 4-(1-Methyl-piperidin-4-yl)-piperazine-1-carboxylic acid 5-chloro-1-(1,2-dimethyl-1H-imidazole-4-sulfonyl)-3-(2-methoxy-pyridin-3-yl)-2-oxo-2,3-dihydro-1H-indol-3-yl ester diacetate]
< 50 | COc1ncccc1C1(OC(=O)N2CCN(C3CCN(C)CC3)CC2)C(=O)N(S(=O)(=O)c2ccc(C)s2)c2ccc(Cl)cc21 (centres unmarked) [Example 168, 4-(1-Methyl-piperidin-4-yl)-piperazine-1-carboxylic acid 5-chloro-3-(2-methoxy-pyridin-3-yl)-1-(5-methyl-thiophene-2-sulfonyl)-2-oxo-2,3-dihydro-1H-indol-3-yl ester diacetate]
50 to 500 | COc1ncccc1C1(OC(=O)N2CCN(C3CCN(C)CC3)CC2)C(=O)N(S(=O)(=O)c2cc(C)sc2C)c2ccc(Cl)cc21 (centres unmarked) [Example 169, 4-(1-Methyl-piperidin-4-yl)-piperazine-1-carboxylic acid 5-chloro-1-(2,5-dimethyl-thiophene-3-sulfonyl)-3-(2-methoxy-pyridin-3-yl)-2-oxo-2,3-dihydro-1H-indol-3-yl ester diacetate]
50 to 500 | COc1ncccc1C1(OC(=O)N2CCN(C3CCN(C)CC3)CC2)C(=O)N(S(=O)(=O)c2csc3ccccc23)c2ccc(Cl)cc21 (centres unmarked) [Example 170, 4-(1-Methyl-piperidin-4-yl)-piperazine-1-carboxylic acid 1-(benzo[b]thiophene-3-sulfonyl)-5-chloro-3-(2-methoxy-pyridin-3-yl)-2-oxo-2,3-dihydro-1H-indol-3-yl ester diacetate]
< 50 | COc1ncccc1C1(OC(=O)N2CCN(C3CCN(C)CC3)CC2)C(=O)N(S(=O)(=O)c2ccsc2)c2ccc(Cl)cc21 (centres unmarked) [Example 171, 4-(1-Methyl-piperidin-4-yl)-piperazine-1-carboxylic acid 5-chloro-3-(2-methoxy-pyridin-3-yl)-2-oxo-1-(thiophene-3-sulfonyl)-2,3-dihydro-1H-indol-3-yl ester diacetate]
50 to 500 | COc1ncccc1C1(OC(=O)N2CCN(C3CCN(C)CC3)CC2)C(=O)N(S(=O)(=O)c2cc3ccccc3s2)c2ccc(Cl)cc21 (centres unmarked) [Example 172, 4-(1-Methyl-piperidin-4-yl)-piperazine-1-carboxylic acid 1-(benzo[b]thiophene-2-sulfonyl)-5-chloro-3-(2-methoxy-pyridin-3-yl)-2-oxo-2,3-dihydro-1H-indol-3-yl ester diacetate]
